# Results as given in PubChem BioAssay (NCI).
#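 Interpolation was linear, between the two tested concentrations surrounding the appropriate level; five concentrations were tested over 48 hours in 96-well plates. TGI denotes the concentration required for complete inhibition of growth.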
# Test system: SF-539 CNS
# Experiment: NCI tumour cell line growth inhibition, 48 h
row,SMILES,TGI [µM]
1,O=C1C(Cl)N(c2ccccc2[N+](=O)[O-])C1c1c[nH]c2ccccc12 (stereo not given),> 100
2,O=C(N/N=C/c1cc(Br)cc(Br)c1[O-])c1ccccc1O.O=C(N/N=C/c1cc(Br)cc(Br)c1[O-])c1ccccc1O.[Fe+2],14.1
3,NC(N)=Nc1ncccc1[N+](=O)[O-],> 100

# Test system: HCC-2998 colon
# Experiment: NCI tumour cell line growth inhibition, 48 h
row,SMILES,TGI [µM]
1,O=C(N/N=C/c1cc(Br)cc(Br)c1[O-])c1ccccc1O.O=C(N/N=C/c1cc(Br)cc(Br)c1[O-])c1ccccc1O.[Fe+2],12.5
2,CCC(C(=O)c1ccc(OC)c(OC)c1)N(C(=O)C(F)(F)F)C(C)c1ccccc1 (stereo not given),> 100
3,NC(N)=Nc1ncccc1[N+](=O)[O-],> 100
4,O=[N+]([O-])c1ccc(-c2ccc(-c3csc(Nc4ccccn4)n3)o2)cc1,> 100

# Test system: ACHN renal
# Experiment: NCI tumour cell line growth inhibition, 48 h
row,SMILES,TGI [µM]
1,O=C(N/N=C/c1cc(Br)cc(Br)c1[O-])c1ccccc1O.O=C(N/N=C/c1cc(Br)cc(Br)c1[O-])c1ccccc1O.[Fe+2],21.1
2,CCC(C(=O)c1ccc(OC)c(OC)c1)N(C(=O)C(F)(F)F)C(C)c1ccccc1 (stereo not given),> 100
3,O=[N+]([O-])c1ccc(-c2ccc(-c3csc(Nc4ccccn4)n3)o2)cc1,> 100

# Test system: NCI-H23 lung
# Experiment: NCI tumour cell line growth inhibition, 48 h
row,SMILES,TGI [µM]
1,O=C1C(Cl)N(c2ccccc2[N+](=O)[O-])C1c1c[nH]c2ccccc12 (stereo not given),> 100
2,O=C(N/N=C/c1cc(Br)cc(Br)c1[O-])c1ccccc1O.O=C(N/N=C/c1cc(Br)cc(Br)c1[O-])c1ccccc1O.[Fe+2],9.66
3,NC(N)=Nc1ncccc1[N+](=O)[O-],> 100

# Test system: A549 NSCLC
# Experiment: NCI tumour cell line growth inhibition, 48 h
row,SMILES,TGI [µM]
1,O=C1C(Cl)N(c2ccccc2[N+](=O)[O-])C1c1c[nH]c2ccccc12 (stereo not given),> 100
2,O=C(N/N=C/c1cc(Br)cc(Br)c1[O-])c1ccccc1O.O=C(N/N=C/c1cc(Br)cc(Br)c1[O-])c1ccccc1O.[Fe+2],29.3
3,CCC(C(=O)c1ccc(OC)c(OC)c1)N(C(=O)C(F)(F)F)C(C)c1ccccc1 (stereo not given),> 100
4,NC(N)=Nc1ncccc1[N+](=O)[O-],> 100

# Test system: OVCAR-8 ovarian
# Experiment: NCI tumour cell line growth inhibition, 48 h
row,SMILES,TGI [µM]
1,O=C1C(Cl)N(c2ccccc2[N+](=O)[O-])C1c1c[nH]c2ccccc12 (stereo not given),> 100
2,O=C(N/N=C/c1cc(Br)cc(Br)c1[O-])c1ccccc1O.O=C(N/N=C/c1cc(Br)cc(Br)c1[O-])c1ccccc1O.[Fe+2],36.1
3,CCC(C(=O)c1ccc(OC)c(OC)c1)N(C(=O)C(F)(F)F)C(C)c1ccccc1 (stereo not given),> 100
4,NC(N)=Nc1ncccc1[N+](=O)[O-],> 100
5,O=[N+]([O-])c1ccc(-c2ccc(-c3csc(Nc4ccccn4)n3)o2)cc1,> 100

# Test system: IGROV1 ovarian
# Experiment: NCI tumour cell line growth inhibition, 48 h
row,SMILES,TGI [µM]
1,O=C1C(Cl)N(c2ccccc2[N+](=O)[O-])C1c1c[nH]c2ccccc12 (stereo not given),> 100
2,O=C(N/N=C/c1cc(Br)cc(Br)c1[O-])c1ccccc1O.O=C(N/N=C/c1cc(Br)cc(Br)c1[O-])c1ccccc1O.[Fe+2],41.4
3,CCC(C(=O)c1ccc(OC)c(OC)c1)N(C(=O)C(F)(F)F)C(C)c1ccccc1 (stereo not given),> 100
4,NC(N)=Nc1ncccc1[N+](=O)[O-],> 100
5,O=[N+]([O-])c1ccc(-c2ccc(-c3csc(Nc4ccccn4)n3)o2)cc1,> 100

# Test system: OVCAR-4 ovarian
# Experiment: NCI tumour cell line growth inhibition, 48 h
row,SMILES,TGI [µM]
1,O=C1C(Cl)N(c2ccccc2[N+](=O)[O-])C1c1c[nH]c2ccccc12 (stereo not given),> 100
2,O=C(N/N=C/c1cc(Br)cc(Br)c1[O-])c1ccccc1O.O=C(N/N=C/c1cc(Br)cc(Br)c1[O-])c1ccccc1O.[Fe+2],18.4
3,NC(N)=Nc1ncccc1[N+](=O)[O-],> 100
4,O=[N+]([O-])c1ccc(-c2ccc(-c3csc(Nc4ccccn4)n3)o2)cc1,50

# Test system: SNB-75 CNS
# Experiment: NCI tumour cell line growth inhibition, 48 h
row,SMILES,TGI [µM]
1,O=C1C(Cl)N(c2ccccc2[N+](=O)[O-])C1c1c[nH]c2ccccc12 (stereo not given),> 100
2,O=C(N/N=C/c1cc(Br)cc(Br)c1[O-])c1ccccc1O.O=C(N/N=C/c1cc(Br)cc(Br)c1[O-])c1ccccc1O.[Fe+2],27.7
3,NC(N)=Nc1ncccc1[N+](=O)[O-],> 100
4,O=[N+]([O-])c1ccc(-c2ccc(-c3csc(Nc4ccccn4)n3)o2)cc1,> 100

# Test system: OVCAR-3 ovarian
# Experiment: NCI tumour cell line growth inhibition, 48 h
row,SMILES,TGI [µM]
1,O=C1C(Cl)N(c2ccccc2[N+](=O)[O-])C1c1c[nH]c2ccccc12 (stereo not given),> 100
2,O=C(N/N=C/c1cc(Br)cc(Br)c1[O-])c1ccccc1O.O=C(N/N=C/c1cc(Br)cc(Br)c1[O-])c1ccccc1O.[Fe+2],25.8
3,CCC(C(=O)c1ccc(OC)c(OC)c1)N(C(=O)C(F)(F)F)C(C)c1ccccc1 (stereo not given),> 100
4,NC(N)=Nc1ncccc1[N+](=O)[O-],66.5
5,O=[N+]([O-])c1ccc(-c2ccc(-c3csc(Nc4ccccn4)n3)o2)cc1,> 100

# Test system: LOX IMVI melanoma
# Experiment: NCI tumour cell line growth inhibition, 48 h
row,SMILES,TGI [µM]
1,O=C(N/N=C/c1cc(Br)cc(Br)c1[O-])c1ccccc1O.O=C(N/N=C/c1cc(Br)cc(Br)c1[O-])c1ccccc1O.[Fe+2],22.7
2,CCC(C(=O)c1ccc(OC)c(OC)c1)N(C(=O)C(F)(F)F)C(C)c1ccccc1 (stereo not given),> 100
3,NC(N)=Nc1ncccc1[N+](=O)[O-],> 100
4,O=[N+]([O-])c1ccc(-c2ccc(-c3csc(Nc4ccccn4)n3)o2)cc1,> 100

# Test system: UACC-62 melanoma
# Experiment: NCI tumour cell line growth inhibition, 48 h
row,SMILES,TGI [µM]
1,O=C1C(Cl)N(c2ccccc2[N+](=O)[O-])C1c1c[nH]c2ccccc12 (stereo not given),> 100
2,O=C(N/N=C/c1cc(Br)cc(Br)c1[O-])c1ccccc1O.O=C(N/N=C/c1cc(Br)cc(Br)c1[O-])c1ccccc1O.[Fe+2],10.5
3,CCC(C(=O)c1ccc(OC)c(OC)c1)N(C(=O)C(F)(F)F)C(C)c1ccccc1 (stereo not given),> 100
4,NC(N)=Nc1ncccc1[N+](=O)[O-],> 100
5,O=[N+]([O-])c1ccc(-c2ccc(-c3csc(Nc4ccccn4)n3)o2)cc1,> 100

# Test system: K-562 leukemia
# Experiment: NCI tumour cell line growth inhibition, 48 h
row,SMILES,TGI [µM]
1,O=C1C(Cl)N(c2ccccc2[N+](=O)[O-])C1c1c[nH]c2ccccc12 (stereo not given),> 100
2,CCC(C(=O)c1ccc(OC)c(OC)c1)N(C(=O)C(F)(F)F)C(C)c1ccccc1 (stereo not given),> 100
3,NC(N)=Nc1ncccc1[N+](=O)[O-],> 100
4,O=[N+]([O-])c1ccc(-c2ccc(-c3csc(Nc4ccccn4)n3)o2)cc1,> 100

# Test system: NCI-H460 lung
# Experiment: NCI tumour cell line growth inhibition, 48 h
row,SMILES,TGI [µM]
1,O=C1C(Cl)N(c2ccccc2[N+](=O)[O-])C1c1c[nH]c2ccccc12 (stereo not given),> 100
2,O=C(N/N=C/c1cc(Br)cc(Br)c1[O-])c1ccccc1O.O=C(N/N=C/c1cc(Br)cc(Br)c1[O-])c1ccccc1O.[Fe+2],22.2
3,CCC(C(=O)c1ccc(OC)c(OC)c1)N(C(=O)C(F)(F)F)C(C)c1ccccc1 (stereo not given),> 100
4,NC(N)=Nc1ncccc1[N+](=O)[O-],> 100

# Test system: SF-295 CNS
# Experiment: NCI tumour cell line growth inhibition, 48 h
row,SMILES,TGI [µM]
1,O=C1C(Cl)N(c2ccccc2[N+](=O)[O-])C1c1c[nH]c2ccccc12 (stereo not given),> 100
2,O=C(N/N=C/c1cc(Br)cc(Br)c1[O-])c1ccccc1O.O=C(N/N=C/c1cc(Br)cc(Br)c1[O-])c1ccccc1O.[Fe+2],15.8
3,CCC(C(=O)c1ccc(OC)c(OC)c1)N(C(=O)C(F)(F)F)C(C)c1ccccc1 (stereo not given),> 100
4,NC(N)=Nc1ncccc1[N+](=O)[O-],> 100
5,O=[N+]([O-])c1ccc(-c2ccc(-c3csc(Nc4ccccn4)n3)o2)cc1,> 100

# Test system: SN12C renal
# Experiment: NCI tumour cell line growth inhibition, 48 h
row,SMILES,TGI [µM]
1,O=C1C(Cl)N(c2ccccc2[N+](=O)[O-])C1c1c[nH]c2ccccc12 (stereo not given),> 100
2,NC(N)=Nc1ncccc1[N+](=O)[O-],> 100
3,O=[N+]([O-])c1ccc(-c2ccc(-c3csc(Nc4ccccn4)n3)o2)cc1,> 100

# Test system: SR leukemia
# Experiment: NCI tumour cell line growth inhibition, 48 h
row,SMILES,TGI [µM]
1,O=C1C(Cl)N(c2ccccc2[N+](=O)[O-])C1c1c[nH]c2ccccc12 (stereo not given),> 100
2,CCC(C(=O)c1ccc(OC)c(OC)c1)N(C(=O)C(F)(F)F)C(C)c1ccccc1 (stereo not given),> 100
3,O=[N+]([O-])c1ccc(-c2ccc(-c3csc(Nc4ccccn4)n3)o2)cc1,> 100

# Test system: EKVX NSCLC
# Experiment: NCI tumour cell line growth inhibition, 48 h
row,SMILES,TGI [µM]
1,O=C1C(Cl)N(c2ccccc2[N+](=O)[O-])C1c1c[nH]c2ccccc12 (stereo not given),> 100
2,O=C(N/N=C/c1cc(Br)cc(Br)c1[O-])c1ccccc1O.O=C(N/N=C/c1cc(Br)cc(Br)c1[O-])c1ccccc1O.[Fe+2],50.3
3,CCC(C(=O)c1ccc(OC)c(OC)c1)N(C(=O)C(F)(F)F)C(C)c1ccccc1 (stereo not given),> 100

# Test system: COLO 205 colon
# Experiment: NCI tumour cell line growth inhibition, 48 h
row,SMILES,TGI [µM]
1,O=C1C(Cl)N(c2ccccc2[N+](=O)[O-])C1c1c[nH]c2ccccc12 (stereo not given),> 100
2,O=C(N/N=C/c1cc(Br)cc(Br)c1[O-])c1ccccc1O.O=C(N/N=C/c1cc(Br)cc(Br)c1[O-])c1ccccc1O.[Fe+2],35.8
3,CCC(C(=O)c1ccc(OC)c(OC)c1)N(C(=O)C(F)(F)F)C(C)c1ccccc1 (stereo not given),> 100
4,NC(N)=Nc1ncccc1[N+](=O)[O-],57.2
5,O=[N+]([O-])c1ccc(-c2ccc(-c3csc(Nc4ccccn4)n3)o2)cc1,> 100

# Test system: HOP-92 NSCLC
# Experiment: NCI tumour cell line growth inhibition, 48 h
row,SMILES,TGI [µM]
1,O=C1C(Cl)N(c2ccccc2[N+](=O)[O-])C1c1c[nH]c2ccccc12 (stereo not given),> 100
2,O=C(N/N=C/c1cc(Br)cc(Br)c1[O-])c1ccccc1O.O=C(N/N=C/c1cc(Br)cc(Br)c1[O-])c1ccccc1O.[Fe+2],6.89
3,NC(N)=Nc1ncccc1[N+](=O)[O-],> 100
4,O=[N+]([O-])c1ccc(-c2ccc(-c3csc(Nc4ccccn4)n3)o2)cc1,> 100
